By IC50 is commonly meant the concentration at which inhibition is half-maximal.

Common to all, as to test: AlphaScreen proximity-based integrin binding assay with TGF-b1 LAP
Common to all, as to conditions: values given as ranges
For orientation: In Alpha technology, singlet oxygen from a donor bead excites a nearby acceptor bead.

Experiment [1] deals with human integrin αVβ1 (Homo sapiens, UniProt P05556+P06756). As to the method: (§1) The biochemical potency of the disclosed compounds was determined using the AlphaScreen® (Perkin Elmer, Waltham, MA) proximity-based assay as described previously (Ullman E F et al., Luminescent oxygen channeling immunoassay: Measurement of particle binding kinetics by chemiluminescence. Proc. Natl. Acad. Sci. USA, Vol. 91, pp. 5426-5430, June 1994, herein incorporated by reference in its entirety). To gauge the potency of inhibitors of binding to each of human integrins αVβ1, αVβ6, and αVβ8, inhibitor compounds were independently incubated with one of αVβ1, αVβ6, or αVβ8, together with TGF-b1 LAP and biotinylated anti-LAP antibody plus acceptor and donor beads, following the manufacture's recommendations. The donor beads were coated with streptavidin. […] All incubations occurred at room temperatures in 50 mM Tris-HCl, pH 7.5, 0.1% BSA supplemented with 1 mM each CaCl2 and MgCl2.
(§2) The order of reagent addition was as follows:
(§3) 1. αVβ1, αVβ6, or αVβ8 integrin, test inhibitor compound, LAP, biotinylated anti-LAP antibody and acceptor beads were all added together.
(§4) 2. After 2 hours, donor beads were added. After another 30 minute incubation, samples were then read.
(§5) Integrin binding was evaluated by exciting donor beads at 680 nm, and measuring the fluorescent signal produced, between 520-620 nm, using a Biotek Instruments (Winooski, VT, USA) SynergyNeo2 multimode plate reader. Compound potency was assessed by determining inhibitor concentrations required to reduce fluorescent light output by 50%. Data analysis for IC50 determinations was carried out by nonlinear four parameter logistic regression analysis using Dotmatics ELN Software (Core Informatics Inc., Branford, Ct). […] Comp #in the Table and Examples below refers to the compound of the corresponding Example number as described in the Synthetic Examples.

Experiment [2] has as its target human integrin αVβ6 (Homo sapiens, UniProt P06756+P18564). As to the method: as §1, §2, §3, §4, §5
For experiment [3], the target named is human integrin αVβ8 (Homo sapiens, UniProt P06756+P26012). As to the method: as §1, §2, §3, §4, §5
Sequence of human integrin αVβ8 (P06756 31-992 limits assumed): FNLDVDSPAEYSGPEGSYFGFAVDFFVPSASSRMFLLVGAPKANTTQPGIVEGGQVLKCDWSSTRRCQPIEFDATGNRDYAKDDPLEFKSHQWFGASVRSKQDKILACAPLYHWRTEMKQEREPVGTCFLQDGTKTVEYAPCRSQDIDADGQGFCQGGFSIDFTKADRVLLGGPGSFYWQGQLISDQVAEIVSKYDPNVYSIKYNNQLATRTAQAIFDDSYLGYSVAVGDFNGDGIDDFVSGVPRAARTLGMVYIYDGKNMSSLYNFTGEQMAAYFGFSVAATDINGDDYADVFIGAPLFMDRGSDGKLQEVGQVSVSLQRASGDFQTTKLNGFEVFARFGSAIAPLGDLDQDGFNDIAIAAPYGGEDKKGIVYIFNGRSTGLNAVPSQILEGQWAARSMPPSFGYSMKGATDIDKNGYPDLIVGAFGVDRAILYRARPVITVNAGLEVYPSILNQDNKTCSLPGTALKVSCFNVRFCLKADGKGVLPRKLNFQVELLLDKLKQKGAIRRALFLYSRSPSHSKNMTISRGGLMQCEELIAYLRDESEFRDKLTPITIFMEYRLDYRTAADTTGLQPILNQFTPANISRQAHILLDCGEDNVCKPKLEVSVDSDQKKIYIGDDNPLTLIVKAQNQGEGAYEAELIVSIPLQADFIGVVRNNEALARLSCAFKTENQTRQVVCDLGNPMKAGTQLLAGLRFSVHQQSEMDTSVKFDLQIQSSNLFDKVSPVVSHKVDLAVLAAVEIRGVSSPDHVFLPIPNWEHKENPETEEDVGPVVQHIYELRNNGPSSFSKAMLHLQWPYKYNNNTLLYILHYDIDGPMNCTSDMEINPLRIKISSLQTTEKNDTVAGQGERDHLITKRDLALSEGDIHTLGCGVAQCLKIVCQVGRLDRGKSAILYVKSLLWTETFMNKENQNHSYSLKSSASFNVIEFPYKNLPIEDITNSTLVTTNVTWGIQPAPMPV
Sequence of human integrin αVβ8 (P26012 43-684 limits assumed): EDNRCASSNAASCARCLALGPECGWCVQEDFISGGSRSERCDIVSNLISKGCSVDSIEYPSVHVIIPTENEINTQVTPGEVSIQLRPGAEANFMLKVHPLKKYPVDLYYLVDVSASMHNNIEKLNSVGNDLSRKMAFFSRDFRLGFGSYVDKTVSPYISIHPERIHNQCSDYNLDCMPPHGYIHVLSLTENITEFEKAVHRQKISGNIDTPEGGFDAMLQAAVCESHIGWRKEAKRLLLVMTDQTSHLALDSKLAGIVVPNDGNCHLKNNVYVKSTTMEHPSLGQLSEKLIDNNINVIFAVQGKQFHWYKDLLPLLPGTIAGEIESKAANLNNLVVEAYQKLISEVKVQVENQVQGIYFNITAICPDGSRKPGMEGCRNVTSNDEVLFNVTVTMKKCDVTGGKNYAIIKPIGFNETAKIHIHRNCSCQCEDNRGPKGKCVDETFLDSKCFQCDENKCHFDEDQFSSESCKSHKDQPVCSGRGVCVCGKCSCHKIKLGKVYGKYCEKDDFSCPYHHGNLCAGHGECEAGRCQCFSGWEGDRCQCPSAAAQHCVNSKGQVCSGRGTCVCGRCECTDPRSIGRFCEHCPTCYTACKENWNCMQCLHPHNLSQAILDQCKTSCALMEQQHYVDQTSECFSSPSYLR

Sequence of human integrin αVβ6 (P06756 31-992 limits assumed): as the sequence (P06756 31-992 limits assumed) above
Sequence of human integrin αVβ6 (P18564 22-707 limits assumed): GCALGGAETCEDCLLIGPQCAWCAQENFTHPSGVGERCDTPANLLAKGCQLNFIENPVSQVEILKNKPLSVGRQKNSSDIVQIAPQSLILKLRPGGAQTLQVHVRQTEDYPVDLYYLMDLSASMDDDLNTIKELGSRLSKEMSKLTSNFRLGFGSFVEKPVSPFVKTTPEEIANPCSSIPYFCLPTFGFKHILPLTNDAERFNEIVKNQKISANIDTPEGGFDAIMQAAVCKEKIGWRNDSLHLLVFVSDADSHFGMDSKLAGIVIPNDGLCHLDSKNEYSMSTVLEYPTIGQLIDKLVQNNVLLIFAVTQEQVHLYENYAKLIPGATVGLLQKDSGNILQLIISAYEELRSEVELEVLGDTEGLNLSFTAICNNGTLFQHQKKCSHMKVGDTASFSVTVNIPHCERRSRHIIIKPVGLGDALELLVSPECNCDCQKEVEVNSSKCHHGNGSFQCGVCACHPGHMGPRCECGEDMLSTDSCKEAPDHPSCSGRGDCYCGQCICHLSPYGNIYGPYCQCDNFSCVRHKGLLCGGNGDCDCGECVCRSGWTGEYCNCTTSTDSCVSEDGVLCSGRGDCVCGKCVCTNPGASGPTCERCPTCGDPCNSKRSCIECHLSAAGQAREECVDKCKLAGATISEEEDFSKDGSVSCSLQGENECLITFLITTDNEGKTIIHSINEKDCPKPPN
Sequence of human integrin αVβ1 (P06756 31-992 limits assumed): as the sequence (P06756 31-992 limits assumed) above
Sequence of human integrin αVβ1 (P05556 21-728 limits assumed): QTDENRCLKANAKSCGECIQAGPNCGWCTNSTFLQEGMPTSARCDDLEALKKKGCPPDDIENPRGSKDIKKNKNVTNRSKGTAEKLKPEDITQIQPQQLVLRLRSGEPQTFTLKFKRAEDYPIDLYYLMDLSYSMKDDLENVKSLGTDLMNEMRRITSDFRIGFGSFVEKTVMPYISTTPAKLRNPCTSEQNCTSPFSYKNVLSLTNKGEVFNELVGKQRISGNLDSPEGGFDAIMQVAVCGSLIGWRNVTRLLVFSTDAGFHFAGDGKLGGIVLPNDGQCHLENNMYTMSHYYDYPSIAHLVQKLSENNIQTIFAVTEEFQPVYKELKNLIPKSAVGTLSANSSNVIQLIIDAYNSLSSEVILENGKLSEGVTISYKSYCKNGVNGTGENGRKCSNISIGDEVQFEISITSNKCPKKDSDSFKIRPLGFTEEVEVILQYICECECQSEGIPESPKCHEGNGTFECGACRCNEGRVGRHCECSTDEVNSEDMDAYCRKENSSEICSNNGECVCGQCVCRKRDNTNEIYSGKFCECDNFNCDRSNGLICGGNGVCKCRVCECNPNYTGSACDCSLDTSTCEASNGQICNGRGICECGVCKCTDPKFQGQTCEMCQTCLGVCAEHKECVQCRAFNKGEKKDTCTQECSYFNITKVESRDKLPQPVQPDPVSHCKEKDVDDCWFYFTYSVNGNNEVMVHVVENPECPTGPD

With `N#Cc1cccnc1C1(C(=O)N[C@@H](CCOCCCCc2ccc3c(n2)NCCC3)C(=O)O)CC1` [Compound 32, N-(1-(3-cyanopyridin-2-yl)cyclopropane-1-carbonyl)-O-(4-(5,6,7,8-tetrahydro-1,8-naphthyridin-2-yl)butyl)-L-homoserine], the IC50 in experiment [1] is < 0.05 µM; in experiment [2], ≥ 0.5 µM; in experiment [3] it was < 0.05 µM.

As for `COc1ncc(F)cc1C1(C(=O)N[C@@H](CCOCCCCc2ccc3c(n2)NCCC3)C(=O)O)CC1` [Compound 33, N-(1-(5-fluoro-2-methoxypyridin-3-yl)cyclopropane-1-carbonyl)-O-(4-(5,6,7,8-tetrahydro-1,8-naphthyridin-2-yl)butyl)-L-homoserine], the IC50 is < 0.05 µM in experiment [1], ≥ 0.5 µM in experiment [2] and < 0.05 µM in experiment [3].

As for `COc1cncc(Cl)c1C1(C(=O)N[C@@H](CCOCCCCc2ccc3c(n2)NCCC3)C(=O)O)CC1` [Compound 34, N-(1-(3-chloro-5-methoxypyridin-4-yl)cyclopropane-1-carbonyl)-O-(4-(5,6,7,8-tetrahydro-1,8-naphthyridin-2-yl)butyl)-L-homoserine], the IC50 in experiment [1] is < 0.05 µM; in experiment [2], ≥ 0.5 µM; in experiment [3], < 0.05 µM.

Consider `COc1ncccc1C1(C(=O)N[C@@H](CCOCCCCc2ccc3c(n2)NCCC3)C(=O)O)CC1` [Compound 35, N-(1-(2-methoxypyridin-3-yl)cyclopropane-1-carbonyl)-O-(4-(5,6,7,8-tetrahydro-1,8-naphthyridin-2-yl)butyl)-L-homoserine], for which the IC50 in experiment [1] was 0.05 to 0.15 µM; in experiment [2] it was ≥ 0.5 µM; in experiment [3], 0.05 to 0.15 µM.

Consider `Cc1cnc(C2(C(=O)N[C@@H](CCOCCCCc3ccc4c(n3)NCCC4)C(=O)O)CC2)c(Cl)c1` [Compound 36, N-(1-(3-chloro-5-methylpyridin-2-yl)cyclopropane-1-carbonyl)-O-(4-(5,6,7,8-tetrahydro-1,8-naphthyridin-2-yl)butyl)-L-homoserine], for which the IC50 was < 0.05 µM in experiment [1], ≥ 0.5 µM in experiment [2] and < 0.05 µM in experiment [3].

Take `N#Cc1cccc(F)c1C1(C(=O)N[C@@H](CCOCCCCc2ccc3c(n2)NCCC3)C(=O)O)CC1` [Compound 37, N-(1-(2-cyano-6-fluorophenyl)cyclopropane-1-carbonyl)-O-(4-(5,6,7,8-tetrahydro-1,8-naphthyridin-2-yl)butyl)-L-homoserine]: the figures for the IC50 in experiment [1], in experiment [2] and in experiment [3] were < 0.05 µM, 0.25 to 0.5 µM and < 0.05 µM, respectively.

Regarding `O=C(O)[C@H](CCOCCCCc1ccc2c(n1)NCCC2)NC(=O)C1(c2ncccc2OC(F)F)CC1` [Compound 38, N-(1-(3-(difluoromethoxy)pyridin-2-yl)cyclopropane-1-carbonyl)-O-(4-(5,6,7,8-tetrahydro-1,8-naphthyridin-2-yl)butyl)-L-homoserine], the IC50 in experiment [1] was < 0.05 µM; in experiment [2], ≥ 0.5 µM; in experiment [3], < 0.05 µM.

Take `O=C(O)[C@H](CCOCCCCc1ccc2c(n1)NCCC2)NC(=O)C1(c2ncccc2C(F)F)CC1` [Compound 40, N-(1-(3-(difluoromethyl)pyridin-2-yl)cyclopropane-1-carbonyl)-O-(4-(5,6,7,8-tetrahydro-1,8-naphthyridin-2-yl)butyl)-L-homoserine]: the IC50 in experiment [1] was < 0.05 µM; in experiment [2] it was ≥ 0.5 µM; in experiment [3], < 0.05 µM.

Consider `Cc1ncnc(C)c1C1(C(=O)N[C@@H](CCOCCCCc2ccc3c(n2)NCCC3)C(=O)O)CC1` [Compound 41, N-(1-(4,6-dimethylpyrimidin-5-yl)cyclopropane-1-carbonyl)-O-(4-(5,6,7,8-tetrahydro-1,8-naphthyridin-2-yl)butyl)-L-homoserine], for which the IC50 in experiment [1] was < 0.05 µM; in experiment [2], ≥ 0.5 µM; in experiment [3], 0.05 to 0.15 µM.

Take `Cc1nccnc1C1(C(=O)N[C@@H](CCOCCCCc2ccc3c(n2)NCCC3)C(=O)O)CC1` [Compound 42, N-(1-(3-methylpyrazin-2-yl)cyclopropane-1-carbonyl)-O-(4-(5,6,7,8-tetrahydro-1,8-naphthyridin-2-yl)butyl)-L-homoserine]: the IC50 in experiment [1] is < 0.05 µM; in experiment [2], ≥ 0.5 µM; in experiment [3], < 0.05 µM.

As for `N#Cc1cc(F)ccc1C1(C(=O)N[C@@H](CCOCCCCc2ccc3c(n2)NCCC3)C(=O)O)CC1` [Compound 43, N-(1-(2-cyano-4-fluorophenyl)cyclopropane-1-carbonyl)-O-(4-(5,6,7,8-tetrahydro-1,8-naphthyridin-2-yl)butyl)-L-homoserine], the values for the IC50 in experiment [1], in experiment [2] and in experiment [3] were < 0.05 µM, ≥ 0.5 µM and < 0.05 µM, respectively.

On to `COc1nccc(Cl)c1C1(C(=O)N[C@@H](CCOCCCCc2ccc3c(n2)NCCC3)C(=O)O)CC1` [Compound 44, N-(1-(4-chloro-2-methoxypyridin-3-yl)cyclopropane-1-carbonyl)-O-(4-(5,6,7,8-tetrahydro-1,8-naphthyridin-2-yl)butyl)-L-homoserine], for which the IC50 was < 0.05 µM in experiment [1], ≥ 0.5 µM in experiment [2] and 0.05 to 0.15 µM in experiment [3].

Turning to `N#Cc1ccccc1C1(C(=O)N[C@@H](CCOCCCCc2ccc3c(n2)NCCC3)C(=O)O)CC1` [Compound 45, N-(1-(2-cyanophenyl)cyclopropane-1-carbonyl)-O-(4-(5,6,7,8-tetrahydro-1,8-naphthyridin-2-yl)butyl)-L-homoserine], the IC50 is < 0.05 µM in experiment [1], ≥ 0.5 µM in experiment [2] and 0.05 to 0.15 µM in experiment [3].

`CS(=O)(=O)c1ccccc1C1(C(=O)N[C@@H](CCOCCCCc2ccc3c(n2)NCCC3)C(=O)O)CC1` [Compound 46, N-(1-(2-(methylsulfonyl)phenyl)cyclopropane-1-carbonyl)-O-(4-(5,6,7,8-tetrahydro-1,8-naphthyridin-2-yl)butyl)-L-homoserine]: the IC50 in experiment [1] was 0.05 to 0.15 µM; in experiment [2], ≥ 0.5 µM; in experiment [3], 0.25 to 0.5 µM.

With `Cc1cncc(F)c1C1(C(=O)N[C@@H](CCOCCCCc2ccc3c(n2)NCCC3)C(=O)O)CC1` [Compound 47, N-(1-(3-fluoro-5-methylpyridin-4-yl)cyclopropane-1-carbonyl)-O-(4-(5,6,7,8-tetrahydro-1,8-naphthyridin-2-yl)butyl)-L-homoserine], the IC50 in experiment [1] was < 0.05 µM; in experiment [2] it was 0.25 to 0.5 µM; in experiment [3] it was < 0.05 µM.

On to `O=C(O)[C@H](CCOCCCCc1ccc2c(n1)NCCC2)NC(=O)C1(c2cncnc2C(F)(F)F)CC1` [Compound 48, O-(4-(5,6,7,8-tetrahydro-1,8-naphthyridin-2-yl)butyl)-N-(1-(4-(trifluoromethyl)pyrimidin-5-yl)cyclopropane-1-carbonyl)-L-homoserine], for which the IC50 in experiment [1] is < 0.05 µM; in experiment [2], ≥ 0.5 µM; in experiment [3] it was < 0.05 µM.

For `O=C(O)[C@H](CCOCCCCc1ccc2c(n1)NCCC2)NC(=O)C1(c2ncncc2Cl)CC1` [Compound 49, N-(1-(5-chloropyrimidin-4-yl)cyclopropane-1-carbonyl)-O-(4-(5,6,7,8-tetrahydro-1,8-naphthyridin-2-yl)butyl)-L-homoserine], the IC50 in experiment [1] is < 0.05 µM; in experiment [2] it was ≥ 0.5 µM; in experiment [3] it was < 0.05 µM.

For the origin of these results see patent US20240245682A1, “ALPHA-V-BETA-8 INTEGRIN INHIBITORS AND USES THEREOF” (Pliant Therapeutics, Inc., priority 2022, published 2024).
